Results from patent US20090054376A1, “BENZOFURAN DERIVATIVES WITH THERAPEUTIC ACTIVITIES” (Pharmos Corporation, priority 2005, published 2009).

Assays:
IL-10 = test: Gene expression in LPS activated RAW 264.7 macrophages, IL-10; assay type: cell-based, mouse; conditions: RAW 264.7, 10 μM, LPS 1 μg/ml, RNA 3 hrs after activation
Protocol: RAW 264.7 macrophages, a mouse cell line (ATCC # TIB 71), were grown in Dulbecco's modified Eagle's medium (DMEM) with 4 mM L-glutamine adjusted to contain 1.5 g/L sodium bicarbonate, 4.5 g/L glucose, and 10% heat inactivated fetal bovine serum. Cells were grown in tissue culture flasks and seeded at appropriate density into 6 wells tissue culture plates. Four million Raw cells in half a milliliter were stimulated with 1 μg/ml LPS E. coli 055:B5 (DIFCO Laboratories). The mouse macrophages were pre-treated for one hour with controls or 10 μM of test compounds, and later on activated with LPS. RNA samples were extracted from the cells 3 hrs after activation and gene expression levels were analyzed by real-time RT-PCR. In parallel, supernatants were collected and secretion of inflammatory mediators was analyzed using ELISA techniques according to the instructions of the kit manufacturer.
Total RNA is prepared using SV total RNA isolation system (Promega). The cells were homogenized in lysis buffer. […] RNA concentrations were determined using GeneQuant II (Pharmacia-Amersham). […] Quantitative real-time RT-PCR included 1 μl of the cDNA, 300 nM of the appropriate forward and reverse primers (according to the gene monitored) and 7.5 μl of the reaction mix containing buffer, nucleotides, Taq polymerase and SYBER green (SYBER Green master mix, Applied Biosystems), in a total reaction volume of 15 μl. […]

[1] = test system: PLP induced remitting-relapsing EAE; test: PLP induced remitting-relapsing EAE; assay type: in vivo, SJL female mice; conditions: for average clinical score on the first peak of the disease: vehicle 3.63±0.25; for average clinical score at the second peak of the disease (first relapse): vehicle 3.14±0.48; for reduction in average clinical score at peak as compared to vehicle: first peak; for AUC of clinical score: over 23 days, vehicle 54.13±9.58; for reduction in average clinical score as compared to vehicle: second peak
[2] = test system: visceral pain writhing responses; test: Tolerance: repeated administration in the model of Visceral Pain; assay type: in vivo, mice; conditions: tested day 11 at 2 mg/kg i.v.
Protocol: Male ICR mice (average body weight 25 g, Harlan, Israel) were pretreated by i.v. injection at volume dose of 5 ml/kg of vehicle, control and test compounds at various doses. Other routes of administration were tested for selected compounds including i.m. or s.c. injections at volume dose of 2.5 ml/kg and p.o. gavage at volume dose of 5 ml/kg. Compounds were dissolved in CREMOPHOR®:Ethanol and diluted 1:20 in saline prior to injection or gavage. Compounds administered i.v. were injected fifteen minutes before pain induction, whereas compounds administered i.m., s.c. or p.o. were supplied thirty minutes before pain induction, unless otherwise indicated. Each treatment group, except for controls comprising at least 30 animals, was composed of at least 6 animals. Fifteen or thirty minutes after drug administration, depending on the route of administration, the mice were injected i.p. with 10 ml/kg of 0.6% acetic acid and the number of visceral pain related behaviors (writhing movements globally defined as WR, i.e. stretching, contractions of the abdomen accompanied by an elongation of the body and extension of the hind limbs) was counted over a period of 5 minutes, starting 5 minutes after the acetic acid administration. These visceral pain related behaviors were globally defined as writhing responses (WR). The results are expressed as mean number of writhing responses ±SEM. Data were analyzed using analysis of variance (ANOVA) followed by post-hoc Fisher test.
Briefly compounds of the invention were administered at 10 mg/kg i.p. daily for 10 days and their analgesic activity was tested on day 11 as described in Example 17 (namely at 2 mg/kg i.v.). […] Each treatment group comprised 10 animals.

Row | SMILES | Percent inhibition of gene expression, IL-10 (IL-10) [%] | average clinical score on the first peak of the disease ([1]; 5 mg/kg p.o. daily for 10 days) | average clinical score at the second peak of the disease (first relapse) ([1]; 5 mg/kg p.o.) | average clinical score on the first peak of the disease ([1]; 10 mg/kg i.p. daily for 10 days) | average clinical score at the second peak of the disease (first relapse) ([1]; 10 mg/kg i.p.) | reduction in average clinical score at peak as compared to vehicle ([1]; 5 mg/kg p.o.) [%] | reduction in average clinical score at peak as compared to vehicle ([1]; 10 mg/kg i.p.) [%] | reduction of overall severity of the disease (expressed in AUC) ([1]; i.p.) [%] | AUC of clinical score ([1]; 5 mg/kg p.o.) | AUC of clinical score ([1]; 10 mg/kg i.p.) | reduction of overall severity of the disease (expressed in AUC) ([1]; p.o.) [%] | reduction in average clinical score as compared to vehicle ([1]; i.p.) [%] | reduction in average clinical score as compared to vehicle ([1]; p.o.) [%] | writhing responses on day 11 ([2]; repeated administration daily for 10 days (10 mg/kg i.p.), vehicle 29.75±1.09) | reduction in pain response after repeated administration ([2]; repeated administration daily for 10 days) [%]
1 | CCCCC(C)(C)c1cc(O)c2c(c1)OC1C2CCC(C)(C)C1O (stereo not drawn) [Compound C6S-7, 3-(1,1-dimethylpentyl)-7,7-dimethyl-5a,6,7,8,9,9a-hexahydro-dibenzofuran-1,6-diol] | 33 | – | – | – | – | – | – | – | – | – | – | – | – | – | –
2 | CCCCCCC(C)(C)c1cc(O)c2c(c1)OC1C(O)CCCCC21 (stereo not drawn) [Compound C7S-2, 2-(1,1-dimethylheptyl)-5,6,7,8,9,9a-hexahydro-4bH-10-oxa-benzo[α]azulen-4,9-diol] | – | 2.78±0.15 | 1.25±0.41 | 2.43±0.26 | 0.57±0.11 | 23 | 33 | 64 | 28.13±5.74 | 19.43±2.51 | 48 | 82 | 60 | 2.45±1.49 | 92
